# Results: publication PMC3401626 (Chemmedchem, 2011)
# Assays:
# Eis [1] = target: T1, Eis (Mycobacterium tuberculosis, UniProt P9WFK7); assay: Mode of inhibition of Eis; type: biochemical; settings: for Mode of inhibition against NEO: varying NEO 50-200 μM
# AAC(6′)/APH(2″)-Ia = AAC(6′)/APH(2″)-Ia (Staphylococcus aureus, UniProt P0A0C1); assay: Inhibitors' selectivity: AAC; type: biochemical; settings: inhibitor 200 to 0.2 μM; enzyme 0.25 μM
# AAC(2′)-Ic = AAC(2′)-Ic (Mycobacterium tuberculosis, UniProt P9WQG9); assay: Inhibitors' selectivity: AAC; type: biochemical, Mtb; settings: inhibitor 200 to 0.2 μM
# Eis [2] = target: T1, Eis; assay: Eis inhibition, UV-Vis DTNB assay of aminoglycoside acetylation; type: biochemical; settings: at least 3 trials
# AAC(3)-IV = target: T2, AAC(3)-IV (Salmonella sp, UniProt P08988); assay: Inhibitors' selectivity: AAC; type: biochemical, Escherichia coli; settings: inhibitor 200 to 0.2 μM; enzyme 0.25 μM
# T2 sequence (P08988 with tags, fused parts or gaps limits assumed): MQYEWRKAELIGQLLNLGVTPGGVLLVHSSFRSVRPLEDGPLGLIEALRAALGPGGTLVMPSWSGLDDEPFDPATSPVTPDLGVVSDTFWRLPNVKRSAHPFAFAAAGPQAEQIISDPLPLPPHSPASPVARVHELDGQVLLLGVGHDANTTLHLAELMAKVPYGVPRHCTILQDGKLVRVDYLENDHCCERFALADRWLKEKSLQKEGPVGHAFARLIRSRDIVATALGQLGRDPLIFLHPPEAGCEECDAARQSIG
# [3] = cited from earlier work
# T1 sequence (P9WFK7 whole entry): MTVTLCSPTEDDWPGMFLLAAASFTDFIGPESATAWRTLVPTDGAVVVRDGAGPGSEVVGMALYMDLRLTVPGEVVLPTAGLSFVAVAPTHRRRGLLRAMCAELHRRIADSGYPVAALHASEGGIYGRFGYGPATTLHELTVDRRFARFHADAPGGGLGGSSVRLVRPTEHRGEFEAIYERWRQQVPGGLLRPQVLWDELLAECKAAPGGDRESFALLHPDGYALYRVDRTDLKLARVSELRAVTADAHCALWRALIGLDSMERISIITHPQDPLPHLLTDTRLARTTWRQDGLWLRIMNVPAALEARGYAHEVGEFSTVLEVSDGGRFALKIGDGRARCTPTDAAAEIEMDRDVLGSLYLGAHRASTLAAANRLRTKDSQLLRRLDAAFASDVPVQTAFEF
# Sequence of AAC(6′)/APH(2″)-Ia (P0A0C1 whole entry): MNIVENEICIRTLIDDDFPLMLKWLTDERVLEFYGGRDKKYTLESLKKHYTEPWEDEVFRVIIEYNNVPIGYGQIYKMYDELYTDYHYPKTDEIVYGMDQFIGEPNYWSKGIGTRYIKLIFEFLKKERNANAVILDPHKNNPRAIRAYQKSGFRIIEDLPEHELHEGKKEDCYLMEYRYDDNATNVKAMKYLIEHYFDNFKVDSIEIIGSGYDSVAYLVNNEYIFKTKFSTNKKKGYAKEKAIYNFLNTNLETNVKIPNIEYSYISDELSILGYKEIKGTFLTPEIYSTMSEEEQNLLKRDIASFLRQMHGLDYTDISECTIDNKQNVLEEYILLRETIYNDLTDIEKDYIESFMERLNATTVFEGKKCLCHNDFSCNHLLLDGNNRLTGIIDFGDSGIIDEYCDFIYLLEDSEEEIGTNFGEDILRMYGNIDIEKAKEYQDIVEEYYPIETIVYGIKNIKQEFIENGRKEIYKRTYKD
# Sequence of AAC(2′)-Ic (P9WQG9 whole entry): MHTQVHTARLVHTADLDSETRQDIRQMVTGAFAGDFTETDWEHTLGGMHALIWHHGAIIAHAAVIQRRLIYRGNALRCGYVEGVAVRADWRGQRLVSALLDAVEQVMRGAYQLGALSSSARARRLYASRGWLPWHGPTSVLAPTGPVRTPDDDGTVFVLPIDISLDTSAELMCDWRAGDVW
smiles,measurement,setting,value
"[H]/N=C(\N/C(=N/[H])NCCCCCCNC(=N)NC(=N)Nc1ccc(Cl)cc1)Nc1ccc(Cl)cc1 [Compound 6, chlorhexidine]",Mode of inhibition against AMK,"Eis [1]; substrate AMK, listed as chlorhexidine (6)",AG-competitive inhibitor
same,Mode of inhibition against KAN,"Eis [1]; substrate KAN, listed as chlorhexidine (6)",AG-competitive inhibitor
same,Mode of inhibition against NEO,Eis [1],competitive inhibitor
same,Mode of inhibition against NEO,Eis [1]; listed as chlorhexidine (6),AG-competitive inhibitor
same,inhibition of AAC(6′)/APH(2″),AAC(6′)/APH(2″)-Ia,no significant inhibition
same,inhibition of AAC(2′)-Ic,AAC(2′)-Ic,no significant inhibition
same,IC50,"Eis [2]; Eis inhibition constants (IC50) using AMK, substrate AMK",321 ± 58 nM
same,IC50,"Eis [2]; Eis inhibition constants (IC50) using KAN, substrate KAN",666 ± 193 nM
same,inhibition of AAC(3)-IV,AAC(3)-IV,no significant inhibition
same,toxic effects on pulmonary tissues,[3],toxic effects on pulmonary tissues
